Data on three molecules can be found in patent publication US20210386762A1, “THE APPLICATION OF URSODEOXYCHOLIC ACID OR ITS PHARMACEUTICAL SALT IN THE PREPARATION OF AN ANTITUMOR DRUG AND AN ANTITUMOR DRUG” (ZHEJIANG UNIVERSITY, priority 2018, published 2021).

The subject of experiment [1] is colon cancer cell line MC38. The experiment in a line: Combination with anti-PD-1 antibody, colon cancer model in humanized PD-1 transgenic mice. Type of experiment: in vivo, mouse. Conditions: MC38 subcutaneous, SHR-1210 10 mg/kg every two days, URSO 30 mg/kg every other day, vs water and humanized IgG4 (FIG. 5). The text has this: (§1) Female C57BL/6 (6-8 weeks old) mice were purchased from Shanghai SLAC Laboratory Animal Co., Ltd.; humanized PD-1 transgenic mice were purchased from Nanjing Biomedical Research Institute of Nanjing University; and all mice were raised in SPF facilities. Mouse colon cancer cell line MC38, lung cancer cell line LLC-luci and melanoma cell line B16 were all purchased from American Type Culture Collection (ATCC).
(§2) To verify whether the combined use of ursodeoxycholic acid and anti-PD-1 antibody can improve antitumor effect, colon cancer cell line MC38, melanoma cell line B16 and lung cancer cell line LLC are inoculated subcutaneously into humanized PD-1 transgenic mice, which were randomly divided into four groups when tumor volume reaches 100 mm^3. Treatment groups were treated with SHR-1210, URSO or SHR-1210 in combination with URSO, while the control groups were injected with water and humanized IgG4 (an isotype control for SHRR-1210). SHR-1210 was used every two days at a dosage of 10 mg/kg, while URSO was used every other day at 30 mg/kg, with the volume of tumor recorded each time.

The subject of experiment [2] is colon cancer cell line MC38. Kind of experiment: Colon cancer tumor-bearing mouse model (C57BL/6). Type of experiment: in vivo. The text has this:
(§3) Female C57BL/6 (6-8 weeks old) mice were purchased from Shanghai SLAC Laboratory Animal Co., Ltd.; humanized PD-1 transgenic mice were purchased from Nanjing Biomedical Research Institute of Nanjing University; and all mice were raised in SPF facilities. Mouse colon cancer cell line MC38, lung cancer cell line LLC-luci and melanoma cell line B16 were all purchased from American Type Culture Collection (ATCC). Since Treg cells can inhibit extensive antitumor immune response while promoting angiogenesis in the tumor microenvironment, to explore the in vivo influence of ursodeoxycholic acid on Treg cells, tumor-bearing models are established using mouse colon cancer cell line MC38, lung cancer cell line LLC-luci and melanoma cell line B16, with female SPF-grade C57BL/6 as the experiment subject. For better internal absorption of ursodeoxycholic acid, the above-mentioned ursodeoxycholic acid is replaced with sodium ursodeoxycholate (SANTA CRUZ BIOTECHNOLOGY, #2898-95-5). The control group and the experimental group both received injection of ddH2O and URSO (30 mg/kg) every day, with tumor size observed and recorded. […] Two weeks later, separate the tumor-infiltrating lymphocytes for analysis by flow cytometry. […]

Experiment [3] deals with lung cancer cell line LLC. The experiment in a line: Combination with anti-PD-1 antibody, lung cancer model in humanized PD-1 transgenic mice. It is filed as in vivo, mouse. As to conditions: LLC subcutaneous, SHR-1210 10 mg/kg every two days, URSO 30 mg/kg every other day, vs water and humanized IgG4 (FIG. 6).
Source text: as §1, §2

In experiment [4] the test system is melanoma cell line B16. The experiment in a line: Melanoma tumor-bearing mouse model (C57BL/6). It is filed as in vivo.
Source text: as §3

Experiment [5] deals with lung cancer cell line LLC-luci. The experiment in a line: Lung cancer tumor-bearing mouse model (C57BL/6). Type of experiment: in vivo.
Source text: as §3

Experiment [6] concerns melanoma cell line B16. Kind of experiment: Combination with anti-PD-1 antibody, melanoma model in humanized PD-1 transgenic mice. It is filed as in vivo, mouse. As to conditions: B16 subcutaneous, SHR-1210 10 mg/kg every two days, URSO 30 mg/kg every other day, vs water and humanized IgG4 (FIG. 7).
Source text: as §1, §2

The test system of experiment [7] is Treg cell differentiation (mouse naïve CD4+ T cells). The experiment in a line: In vitro Treg cell differentiation of mouse naïve CD4+ T cells, flow cytometry. Type of experiment: cell-based. Conditions: 50 μM vs DMSO, anti-CD3/anti-CD28, flow cytometry on day 4 (FIG. 1). From the text:
Treg cell surface can express CD4 and CD25 molecules. In addition, it is characterized by its high expression of transcription factor Foxp3. Based on the characteristic above, flow cytometry is adopted to explore the in vitro influence of ursodeoxycholic acid on Treg cell differentiation. Detailed procedures are as follows: T cell sorting: Mouse T cells were sorted by immunomagnetic beads methods. The mice were killed by cervical dislocation, spleens and lymph nodes were taken under aseptic conditions, ground and put through a sieve, centrifuged at 400 g for 5 min, and cells were resuspended with sort buffer. The total cells were counted with 3% glacial acetic acid, and proceeded strictly following the instructions of the sorting kit. CD4 negative selection kit (EasySep™ Mouse CD4+ T Cell Isolation Kit, #19852A) and Biotin sorting kit (EasySep™ Mouse Biotin Positive Selection Kit, #18556) were used in combination for sorting naïve CD4+ T cells (CD4-positive naïve T cells). […] After sorting, when the CD4+CD62L+ purity detected by flow cytometry is greater than 95%, cells were used for further experiments. […] DMSO or ursodeoxycholic acid U5127 (SIGMA-ALDRICH, #128-13-2) was added with a concentration of 50 μM respectively, and the differentiation of Treg cells were detected by flow cytometry on day 4. […]
For orientation: Flow cytometry measures light scatter and fluorescence of single cells or particles in a stream.

Experiment [8] concerns Treg cell differentiation (human naïve CD4+ T cells). Kind of experiment: In vitro Treg cell differentiation of human naïve CD4+ T cells, flow cytometry. Type of experiment: cell-based. As to conditions: human naïve CD4+ T cells from healthy volunteers, CD3/CD28 activation, flow cytometry on day 4 (FIG. 8). On the procedure:
To investigate the influence of ursodeoxycholic acid on humanized Treg cell differentiation, whole blood of volunteers were collected (ethics approval: approved by Medical Ethics Committee of Zhejiang University School of Medicine, Shen Lun No. 2019-013; five healthy volunteers, 10 ml peripheral venous blood each, collected by Zhejiang Medial & Health Group Hangzhou Hospital). naïve CD4+ T cells were sorted. Detailed procedures are as follows: 1. Separation of peripheral blood mononuclear cells: • (1) Fresh anticoagulant whole blood (EDTA, sodium citrate or heparin) was taken. Whole blood was diluted with isotonic solution (PBS or normal saline) of equal volume. • (2) A certain volume of separating medium (VESTA, #7111011) was added into a centrifuge tube, diluted blood sample was spread evenly on the surface of separating medium, and maintained a clear interface between two liquid surfaces. […] Sorting of human naïve CD4+ T cells: • (1) With Human naïve CD4+ T Cell Kit (STEMCELL, #19155) and the standard kit method adopted, naïve CD4+ T cells were sorted from human peripheral blood mononuclear cells, and plating was conducted according to the method in Example 1. • (2) Human T-Activator CD3/CD28 was added for T Cell Expansion and Activation (Gibco, #11161D). • (3) On day 4, Treg cell differentiation was detected by flow cytometry.

Consider `C[C@H](CCC(=O)[O-])[C@H]1CC[C@H]2[C@@H]3[C@@H](O)C[C@@H]4C[C@H](O)CC[C@]4(C)[C@H]3CC[C@]12C.[Na+]` [URSO, sodium ursodeoxycholate], for which the “tumor growth (tumor volume)” value (in experiment [1]; in experiment [3]; with melanoma cell line B16 [6]) was “significantly inhibited tumor growth” in each case. Also, the tumor volume result in experiment [2] (C57BL/6 mice, 30 mg/kg injection every day, vs ddH2O control (FIG. 4A)) is recorded as “obviously smaller in volume”; with melanoma cell line B16 [4] (C57BL/6 mice, 30 mg/kg injection every day, vs ddH2O control (FIG. 2A)), “obviously smaller in volume”; in experiment [5] (C57BL/6 mice, 30 mg/kg injection every day, vs ddH2O control (FIG. 3A)), “obviously smaller in volume”.
In the case of `C[C@H](CCC(=O)O)[C@H]1CC[C@H]2[C@@H]3[C@@H](O)C[C@@H]4C[C@H](O)CC[C@]4(C)[C@H]3CC[C@]12C` [ursodeoxycholic acid], the “proportion of Treg cells in tumor infiltrating lymphocytes” value in experiment [2] (two weeks of treatment, flow cytometry (FIG. 4B)) was “reduced”; in the experiment with melanoma cell line B16 [4] (two weeks of treatment, flow cytometry (FIG. 2B)), “reduced”; in experiment [5] (two weeks of treatment, flow cytometry (FIG. 3B)), “reduced”. In experiment [7], the “proportion of endogenous Treg cells” value is “significantly reduced”. The “differentiation of humanized endogenous Treg cells” value in experiment [8] is recorded as “reduced”.

B1: SHR-1210: humanized anti-PD-1 antibody produced by Hengrui Medicine (antibody, chains of the INN, looked up, V domains shown)
VH: EVQLVESGGGLVQPGGSLRLSCAASGFTFSSYMMSWVRQAPGKGLEWVATISGGGANTYYPDSVKGRFTISRDNAKNSLYLQMNSLRAEDTAVYYCARQLYYFDYWGQGTTVTVSS
VL: DIQMTQSPSSLSASVGDRVTITCLASQTIGTWLTWYQQKPGKAPKLLIYTATSLADGVPSRFSGSGSGTDFTLTISSLQPEDFATYYCQQVYSIPWTFGGGTKVEIK
As for B1, the “tumor growth (tumor volume)” value (in experiment [1]; in experiment [3]; in the experiment on melanoma cell line B16 [6]) was “significantly inhibited tumor growth” throughout.
